The results in this text go back to ChEMBL document CHEMBL2203284, “Synthesis and structure based optimization of 2-(4-phenoxybenzoyl)-5-hydroxyindole as a novel CaMKII inhibitor” (Bioorg Med Chem, 2012).

SMILES strings stand for the structures.

In general, IC50 refers to the midpoint of a concentration-inhibition curve. What is called solubility is the concentration that dissolves in the medium under given conditions.

The nature of data set [1]: Inhibition of recombinant CaMK2 expressed in Sf9cells using autocamtide-2/CAM as substrate after 90 mins. The note with it: sf9.
The nature of data set [2]: Selectivity ratio of IC50 for PKCgamma to IC50 for recombinant CaMK2.
The nature of data set [3]: Selectivity ratio of IC50 for Akt1 to IC50 for recombinant CaMK2.
A short description of data set [4]: Selectivity ratio of IC50 for MLCK to IC50 for recombinant CaMK2.
A short description of data set [5]: Selectivity ratio of IC50 for p38alpha to IC50 for recombinant CaMK2.
Data set [6] can be described thus: Solubility of the compound in water at pH 7.4. It is filed as physicochemical.

With `CCNCCOc1cccc2[nH]c(C(=O)c3ccc(Oc4ccccc4)cc3)cc12`, the IC50 in data set [1] was determined as 1100 nM. On to `O=C(c1ccc(Oc2ccccc2)cc1)c1cc2c(OCCN3CCC(O)CC3)cccc2[nH]1`, for which the IC50 in data set [1] is 420 nM. Regarding `O=C(c1ccc(Oc2ccccc2)cc1)c1cc2c(OCCN3CCNCC3)cccc2[nH]1`, the IC50 in data set [1] amounted to 270 nM. Regarding `O=C(c1ccc(Oc2ccccc2)cc1)c1cc2c(Cl)c(O)ccc2[nH]1`, the IC50 in data set [1] was 640 nM. Turning to `O=C(c1ccc(Oc2ccccc2)cc1)c1cc2c(Br)c(O)ccc2[nH]1`, the Ratio IC50 in data set [2] is 550; in data set [3], 1500; in data set [4], 12; in data set [5] it was 115. Further, the solubility in data set [6] was < 1 µg/mL. For the same molecule, the IC50 in data set [1] is 40 nM. As for `COc1ccc2[nH]c(C(=O)c3ccc(Oc4ccccc4)cc3)cc2c1`, the IC50 in data set [1] is > 10000 nM. With `O=C(O)COc1ccc2[nH]c(C(=O)c3ccc(Oc4ccccc4)cc3)cc2c1`, in data set [1], the IC50 was 510 nM. With `O=C(c1ccc(Oc2ccccc2)cc1)c1cc2c(Br)c(O)c(Br)cc2[nH]1`, the Ratio IC50 in data set [2] is 1250; in data set [3], > 5000; in data set [4] it was 63; in data set [5] it was 450. The solubility in data set [6] was < 1 µg/mL. For the same molecule, in data set [1], the IC50 worked out at 12 nM. On to `NCCOc1cccc2[nH]c(C(=O)c3ccc(Oc4ccccc4)cc3)cc12`, for which, in data set [1], the IC50 came to 2600 nM. The same measure, in the same setting: with `O=C(c1ccc(Oc2ccccc2)cc1)c1cc2c(OCCN3CCCCC3)cccc2[nH]1` the figure was 820 nM. `O=C(c1ccc(Oc2ccccc2)cc1)c1cc2cc(O)ccc2[nH]1`: the Ratio IC50 in data set [2] is 93; in data set [3] it was 295; in data set [4] it was < 1; in data set [5], < 1. Moreover, the IC50 in data set [1] was found to be 610 nM. Consider `CC(C)(Oc1ccc2[nH]c(C(=O)c3ccc(Oc4ccccc4)cc3)cc2c1)C(=O)O`, for which the half-inhibitory concentration (IC50) in data set [1] turned out to be 1500 nM. For `O=C(c1ccc(Oc2ccccc2)cc1)c1cc2c(OCCCN3CCCCC3)cccc2[nH]1`, the IC50 in data set [1] is 800 nM. The same measure, in the same setting: with `Cc1c(O)ccc2[nH]c(C(=O)c3ccc(Oc4ccccc4)cc3)cc12` the figure was 1300 nM. In the case of `O=C(c1ccc(Oc2ccccc2)cc1)c1cc2c(Cl)c(O)c(Cl)cc2[nH]1`, the solubility in data set [6] is < 1 µg/mL. In addition, the IC50 in data set [1] amounted to 61 nM. With `CCNCCOc1ccc2[nH]c(C(=O)c3ccc(Oc4ccccc4)cc3)cc2c1`, the IC50 in data set [1] was found to be 1500 nM.
